Measured values as given in patent publication US8575153B2 (Kowa Company, Ltd., priority 2008, dated 2013).
Counter-ions that a name gives are not always drawn.

Molecular target: Recombinant human JAK3 enzyme (JAK3 kinase region; Ala795-Ser1124) (Homo sapiens, UniProt P52333)
Test: JAK3 Kinase Assay (Kinase-Glo luminescent, ATP consumption)
Conditions: read-out: Inhibition rate (%) of JAK3 kinase activity
Experimental: Recombinant human JAK3 enzyme (JAK3 kinase region; Ala795-Ser1124) was purchased from Carna Biosciences, Inc.
The reaction was conducted in a kinase buffer (reaction volume: a total of 50 μl) containing 8 mM MOPS (pH 7.0), 0.2 mM EDTA, a test compound solution prepared to each concentration and 0.5 μg/ml JAK3 enzyme using a 96-well polystyrene plate (clear-bottom white-wall). […] After incubating them at room temperature for 2 hours, 50 μl of Kinase-Glo Luminescent Kinase Assay reagent (Promega) was added to each well, and further incubated at room temperature for 10 minutes. Using a chemiluminescence microplate reader MicroLumat LB96P (Berthold), chemiluminescence intensity was measured to quantitate the amount of ATP remaining after reaction. From the amount of ATP consumed in the phosphorylation reaction, the inhibition rate (%) of JAK3 kinase activity was determined.

Chain of Recombinant human JAK3 enzyme (JAK3 kinase region; Ala795-Ser1124) (P52333 795-1124): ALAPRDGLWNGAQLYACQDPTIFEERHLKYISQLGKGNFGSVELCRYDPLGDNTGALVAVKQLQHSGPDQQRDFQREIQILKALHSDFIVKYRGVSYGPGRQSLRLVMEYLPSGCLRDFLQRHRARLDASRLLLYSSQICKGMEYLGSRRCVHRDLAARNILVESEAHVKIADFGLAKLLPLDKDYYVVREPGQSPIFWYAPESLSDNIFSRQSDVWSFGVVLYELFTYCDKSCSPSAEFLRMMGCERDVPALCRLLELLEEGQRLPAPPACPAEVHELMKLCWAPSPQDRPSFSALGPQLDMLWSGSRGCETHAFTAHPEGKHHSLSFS

inhibition at 0.1 µM [%] | inhibition at 1 µM [%] | SMILES
72 |  | NC(=O)c1cnc(Nc2ccc(NCCO)cc2)cc1NCc1cc(F)cc(F)c1 [Example 234, 4-[(3,5-difluorobenzyl)amino]-6-({4-[(2-hydroxyethyl)amino]phenyl}amino)pyridine-3-carboxyamide]
90 |  | CC(C)S(=O)(=O)Nc1ccc(Nc2cc(NCc3cc(F)cc(F)c3)c(C(N)=O)cn2)cc1 [Example 302, 4-[(3,5-difluorobenzyl)amino]-6-({4-[(propan-2-ylsulfonyl)amino]phenyl}amino)pyridine-3-carboxyamide]
79 |  | NC(=O)c1cnc(Nc2ccc(N3CCOCC3)cc2)cc1NCc1ccccc1Cl [Example 80, 4-[(2-chlorobenzyl)amino]-6-[(4-morpholinophenyl)amino]pyridine-3-carboxyamide]
 | 62 | NC(=O)c1cnc(-n2cnc3ccccc32)cc1NCc1cc(F)cc(F)c1 [Example 365, 6-(1H-benzimidazol-1-yl)-4-[(3,5-difluorobenzyl)amino]pyridine-3-carboxyamide]
53 |  | NC(=O)c1cnc(Nc2ccc(N3CCOCC3)cc2)cc1NCc1cccc([N+](=O)[O-])c1 [Example 102, 6-[(4-morpholinophenyl)amino]-4-[(3-nitrobenzyl)amino]pyridine-3-carboxyamide]
59 |  | CCN(CC)C(=O)Nc1ccc(Nc2cc(NCc3ccccc3)c(C(N)=O)cn2)cc1 [Example 279, 4-(benzylamino)-6-({4-[(diethylcarbamoyl)amino]phenyl}amino)pyridine-3-carboxyamide]
75 |  | NC(=O)c1cnc(Nc2ccc(NCCN3CCOCC3)cc2)cc1NCc1ccccc1 [Example 70, 4-(benzylamino)-6-({4-[(2-morpholinoethyl)amino]phenyl}amino)pyridine-3-carboxyamide]
 | 31 | NC(=O)c1cnc(Nc2ccncc2)cc1NCc1ccccc1 [Example 372, 4-benzylamino-6-(pyridin-4-ylamino) pyridine-3-carboxyamide]
60 |  | NC(=O)c1cnc(Nc2ccc(NC(=O)C3CCNCC3)cc2)cc1NCc1cc(F)cc(F)c1 [Example 315, 4-[(3,5-difluorobenzyl)amino]-6-({4-[(piperidin-4-ylcarbonyl)amino]phenyl}amino)pyridine-3-carboxyamide hydrochloride]
57 |  | CCN(CC)CCN1CCN(c2cccc(Nc3cc(NCc4cc(F)cc(F)c4)c(C(N)=O)cn3)c2)CC1 [Example 239, 6-[(3-{4-[2-(diethylamino)ethyl]piperazin-1-yl}phenyl)amino]-4-[(3,5-difluorobenzyl)amino]pyridine-3-carboxyamide]
80 |  | C[C@@H]1CN(c2ccc(Nc3cc(NCc4ccccc4)c(C(N)=O)cn3)cc2)C[C@H](C)N1 [Example 136, 4-(benzylamino)-6-({4-[(3R,5S)-3,5-dimethylpiperazin-1-yl]phenyl}amino)pyridine-3-carboxyamide]
 | 9 | N#Cc1ccc2ncn(-c3cc(NCc4cc(F)cc(F)c4)c(C(N)=O)cn3)c2c1 [Example 366, 6-(6-cyano-1H-benzimidazol-1-yl)-4-[(3,5-difluorobenzyl)amino]pyridine-3-carboxyamide]
90 |  | NC(=O)c1cnc(Nc2ccc(N3CCC(CCO)CC3)cc2)cc1NCc1cccc(F)c1F [Example 178, 4-[(2,3-difluorobenzyl)amino]-6-({4-{4-(2-hydroxyethyl)piperidino]phenyl}amino)pyridine-3-carboxyamide]
84 |  | NC(=O)c1cnc(Nc2ccc(N3CCC(C(=O)N(CCO)CCO)CC3)cc2)cc1NCc1ccccc1 [Example 177, 4-(benzylamino)-6-[(4-{4-[bis(2-hydroxyethyl)carbamoyl]piperidino}phenyl)amino]pyridine-3-carboxyamide]
59 |  | CC(C)N1CCN(c2cccc(Nc3cc(NCc4cc(F)cc(F)c4)c(C(N)=O)cn3)c2)CC1 [Example 155, 4-[(3,5-difluorobenzyl)amino]-6-({3-[4-(propan-2-yl)piperazin-1-yl]phenyl}amino)pyridine-3-carboxyamide]
92 |  | NC(=O)c1cnc(Nc2ccc(N3CCOCC3)cc2)cc1NCc1cc(F)cc(F)c1 [Example 91, 4-[(3,5-difluorobenzyl)amino]-6-[(4-morpholinophenyl)amino]pyridine-3-carboxyamide]
70 |  | NC(=O)c1cccc(CNc2cc(Nc3ccc(N4CCOCC4)cc3)ncc2C(N)=O)c1 [Example 115, 4-[(3-carbamoylbenzyl)amino]-6-[(4-morpholinophenyl)amino]pyridine-3-carboxyamide]
92 |  | N#CCC(=O)N1CCN(c2ccc(Nc3cc(NCc4cc(F)cc(F)c4)c(C(N)=O)cn3)cc2)CC1 [Example 264, 6-({4-[4-(cyanoacetyl)piperazin-1-yl]phenyl}amino)-4-[(3,5-difluorobenzyl)amino]pyridine-3-carboxyamide]
70 |  | CCN(CC)CC(=O)N1CCC(c2ccc(Nc3cc(NCc4ccccc4)c(C(N)=O)cn3)cc2)CC1 [Example 277, 4-(benzylamino)-6-({4-[1-(N,N-diethylglycyl)piperidin-4-yl]phenyl}amino)pyridine-3-carboxyamide]

inhibition at 0.1 µM [%] | inhibition at 1 µM [%] | SMILES
 | 67 | NC(=O)c1cnc(Nc2ccc(N3CCOCC3)cc2)cc1NCc1ccccn1 [Example 363, 6-[(4-morpholinophenyl)amino]-4-[(pyridin-2-ylmethyl)amino]pyridine-3-carboxyamide]
96 |  | NC(=O)c1cnc(Nc2ccc(N3CCOCC3)cc2)cc1NCc1c(F)cccc1F [Example 94, 4-[(2,6-difluorobenzyl)amino]-6-[(4-morpholinophenyl)amino]pyridine-3-carboxyamide]
68 |  | NC(=O)c1cnc(Nc2ccc(N3CCNCC3)cc2)cc1NCc1cccc([N+](=O)[O-])c1 [Example 224, 4-[(3-nitrobenzyl)amino]-6-{[4-(piperazin-1-yl)phenyl]amino}pyridine-3-carboxyamide]
77 |  | CC(C)S(=O)(=O)Nc1ccc(Nc2cc(NCc3ccccc3)c(C(N)=O)cn2)cc1 [Example 163, 4-(benzylamino)-6-({4-[(propan-2-ylsulfonyl)amino]phenyl}amino)pyridine-3-carboxyamide]
69 |  | NC(=O)c1cnc(Nc2ccc(C(=O)O)cc2)cc1NCc1cc(F)cc(F)c1 [Example 332, 6-[(4-carboxyphenyl)amino]-4-[(3,5-difluorobenzyl)amino]pyridine-3-carboxyamide]
74 |  | NC(=O)c1cnc(Nc2ccc(N3CCOCC3)cc2)cc1NCc1cc(F)cc(C(F)(F)F)c1 [Example 96, 6-[(4-morpholinophenyl)amino]-4-{[3-fluoro-5-(trifluoromethyl)benzyl]amino}pyridine-3-carboxyamide]
79 |  | CC(C)NC(=O)N1CCN(c2ccc(Nc3cc(NCc4ccccc4)c(C(N)=O)cn3)cc2)CC1 [Example 283]
65 |  | NC(=O)c1cnc(Nc2ccc(N3CCOCC3)cc2)cc1NCc1ccccc1 [Example 72, 4-(benzylamino)-6-{(4-morpholinophenyl)amino]pyridine-3-carboxyamide]
63 |  | CC(C)NC(=O)N1CCN(c2ccc(Nc3cc(NCc4cccc([N+](=O)[O-])c4)c(C(N)=O)cn3)cc2)CC1 [Example 284, 4-[(3-nitrobenzyl)amino]-6-[(4-{[4-(propan-2-yl)carbamoyl]piperazin-1-yl}phenyl)amino]pyridine-3-carboxyamide]
93 |  | NC(=O)c1cnc(Nc2ccc(N3CCC(O)CC3)cc2)cc1NCc1ccccc1Cl [Example 186, 4-[(2-chlorobenzyl)amino]-6-{[4-(4-hydroxypiperidino)phenyl]amino}pyridine-3-carboxyamide]
87 |  | Cc1ccccc1CNc1cc(Nc2ccc(N3CCC(O)CC3)cc2)ncc1C(N)=O [Example 185, 4-[(2-methylbenzyl)amino]-6-{[4-(4-hydroxypiperidino)phenyl]amino}pyridine-3-carboxyamide]
80 |  | COc1ccc(F)cc1CNc1cc(Nc2ccc(N3CCOCC3)cc2)ncc1C(N)=O [Example 99, 4-[(5-fluoro-2-methoxybenzyl)amino]-6-[(4-morpholinophenyl)amino]pyridine-3-carboxyamide]
65 |  | N#CCCC1CCN(c2ccc(Nc3cc(NCc4ccccc4)c(C(N)=O)cn3)cc2)CC1 [Example 60, 4-(benzylamino)-6-({4-[4-(2-cyanoethyl)piperidino]phenyl}amino)pyridine-3-carboxyamide]
78 |  | CCN(CC)CCS(=O)(=O)Nc1ccc(Nc2cc(NCc3cc(F)cc(F)c3)c(C(N)=O)cn2)cc1 [Example 304, 6-{[4-({[2-(diethylamino)ethyl]sulfonyl}amino)phenyl]amino}-4-[(3,5-difluorobenzyl)amino]pyridine-3-carboxyamide]
63 |  | CN1CCN(c2ccc(Nc3cc(NCc4ccccc4)c(C(N)=O)cn3)cc2)CC1 [Example 145, 4-(benzylamino)-6-{[4-(4-methylpiperazin-1-yl)phenyl]amino}pyridine-3-carboxyamide]
98 |  | N#CCC(=O)N1CCN(c2ccc(Nc3cc(NCc4cccc(F)c4F)c(C(N)=O)cn3)cc2)CC1 [Example 263, 6-({4-[4-(cyanoacetyl)piperazin-1-yl]phenyl}amino)-4-[(2,3-difluorobenzyl)amino]pyridine-3-carboxyamide]
69 |  | CC(C)N1CCN(c2ccc(Nc3cc(NCc4cc(F)cc(F)c4)c(C(N)=O)cn3)cc2)CC1 [Example 151, 4-[(3,5-difluorobenzyl)amino]-6-({4-[4-(propan-2-yl)piperazin-1-yl]phenyl}amino)pyridine-3-carboxyamide]
78 |  | CCN(CC)CCN1CCN(c2ccc(Nc3cc(NCc4cccc(F)c4F)c(C(N)=O)cn3)cc2)CC1 [Example 237, 6-[(4-{4-[2-(diethylamino)ethyl]piperazin-1-yl}phenyl)amino]-4-[(2,3-difluorobenzyl)amino]pyridine-3-carboxyamide]
